{"source": "patent US4257941A", "about": "“Polycyclic nitrogen-containing compounds” (BASF Aktiengesellschaft, priority 1976, dated 1981)", "format_in_all_cases": "in vivo", "key": {"[1]": {"test_system": "Avena sativa", "assay": "Growth height of Gramineae (Example 11, Table B)", "conditions": "3.0 kg/ha, 0 = no inhibition, 100 = no growth; for inhibition at 3000 g/ha: Avena sativa, read-out: growth inhibition compared with untreated control", "text": "(§1) The vessels used for the experiments were plastic pots having a volume of 1,130 cm^3 (Table A) or paraffined paper cups having a volume of 170 cm^3 (Table B). The pots and cups were filled with a sandy loam. The seeds of the test plants-separated by species-were sown shallow. Preemergence treatment (soil treatment) was effected immediately after sowing and before germination of the seeds. Seeds lying on the surface came into contact with the active ingredients. Postemergence treatment (leaf treatment) took place at an average growth height of the plants (depending on the rate of growth) of from 6 to 10 cm. The substances were suspended, emulsified or dissolved in water as diluent and applied by means of fine nozzles. The vessels were kept in the greenhouse in a temperature range of 12° C. to 25° C., and were regularly sprinkler irrigated for the duration of the experiment. The observation period was 6 to 8 weeks."}, "[2]": {"test_system": "Hordeum vulgare", "assay": "Growth height of Gramineae (Example 11, Table B)", "conditions": "3.0 kg/ha, 0 = no inhibition, 100 = no growth; for inhibition at 3000 g/ha: Hordeum vulgare, read-out: growth inhibition compared with untreated control", "text": "as §1"}, "[3]": {"test_system": "Lolium multifl.", "assay": "Growth height of Gramineae (Example 11, Table B)", "conditions": "3.0 kg/ha, 0 = no inhibition, 100 = no growth; for inhibition at 3000 g/ha: Lolium, read-out: growth inhibition compared with untreated control", "text": "as §1"}, "[4]": {"test_system": "Matricaria chamomilla", "assay": "Herbicidal action (Example 25)", "conditions": "preemergence, 2.0 kg/ha", "experimental": "(§2) Paraffined paper cups having a volume of 170 cm^3 were filled with a sandy loam, and the seeds of the test plants sown therein, separated by species. (The species are also listed below.)\n(§3) In the first group, treatment was effected immediately after sowing and before germination of the seeds (preemergence treatment=soil treatment). Shallow sown seeds not completely covered with soil came into contact with the active ingredients. In the second group, the plants were treated postemergence (=leaf treatment) at a growth height of from 2 to 8 cm, depending on the rate of growth and shape of the species concerned. The compounds were suspended or emulsified in water and applied with the aid of fine nozzles. The soil and plants were thoroughly sprinkler irrigated for the duration of the experiment. The cups were placed in the greenhouse and kept in the temperature range 12°-25° C. or 18°-35° C., depending on the temperature requirements of the various species. After 2 to 6 weeks the action was assessed visually on a 0 to 100 scale, 0 denoting no damage and 100 denoting plants not germinated or completely destroyed."}, "[5]": {"test_system": "Panicum virgatum", "assay": "Herbicidal action (Example 25)", "conditions": "preemergence, 2.0 kg/ha", "experimental": "as §2, §3"}, "[6]": {"test_system": "Poa annua", "assay": "Herbicidal action (Example 25)", "conditions": "Poa annua, pre-emergence, read-out: percentage damage", "experimental": "as §2, §3"}, "[7]": {"test_system": "Setaria faberii", "assay": "Herbicidal action (Example 25)", "conditions": "preemergence", "experimental": "as §2, §3"}, "[8]": {"test_system": "Sinapis alba", "assay": "Herbicidal action (Example 25)", "conditions": "pre-emergence, read-out: percentage damage", "experimental": "as §2, §3"}, "[9]": {"test_system": "Sorghum halepense", "assay": "Herbicidal action (Example 25)", "conditions": "preemergence", "experimental": "as §2, §3"}, "[10]": {"test_system": "Stellaria media", "assay": "Herbicidal action (Example 25)", "conditions": "preemergence, 2.0 kg/ha", "experimental": "as §2, §3"}, "[11]": {"test_system": "Alopecurus myosuroides", "assay": "Herbicidal action (Example 25)", "conditions": "Alopecurus myosuroides, pre-emergence, read-out: percentage damage", "experimental": "as §2, §3"}, "[12]": {"test_system": "Cynodon dactylon", "assay": "Herbicidal action (Example 25)", "conditions": "preemergence", "experimental": "as §2, §3"}, "[13]": {"test_system": "Cyperus esculentus", "assay": "Herbicidal action (Example 25)", "conditions": "preemergence", "experimental": "as §2, §3"}, "[14]": {"test_system": "Digitaria sanguinalis", "assay": "Herbicidal action (Example 25)", "conditions": "preemergence", "experimental": "as §2, §3"}, "[15]": {"test_system": "Euphorbia spp.", "assay": "Herbicidal action (Example 25)", "conditions": "preemergence", "experimental": "as §2, §3"}, "[16]": {"test_system": "Ipomoea spp.", "assay": "Herbicidal action (Example 25)", "conditions": "preemergence, 4.0 kg/ha", "experimental": "as §2, §3"}}, "note": "Like-named read-outs stand apart in the source and are kept apart here.", "data": [{"smiles": "C[N+](C)(C)CCCl", "note": "[drawing 370]", "values": [{"measurement": "inhibition at 3000 g/ha", "setting": "[1]; leaf treatment", "value": 45, "unit": "%"}, {"measurement": "inhibition at 3000 g/ha", "setting": "[1]; soil treatment", "value": 25, "unit": "%"}, {"measurement": "inhibition at 3000 g/ha", "setting": "[2]; leaf treatment", "value": 10, "unit": "%"}, {"measurement": "inhibition at 3000 g/ha", "setting": "[2]; soil treatment", "value": 10, "unit": "%"}, {"measurement": "inhibition at 3000 g/ha", "setting": "[3]; leaf treatment", "value": 20, "unit": "%"}, {"measurement": "inhibition at 3000 g/ha", "setting": "[3]; soil treatment", "value": 5, "unit": "%"}]}, {"smiles": "c1ccc(N2C3C4CC(C5N=NC45)C32)cc1", "note": "(centres unmarked) [drawing 416]", "values": [{"measurement": "percentage damage", "setting": "[4]", "value": 95, "unit": "percentage damage"}, {"measurement": "percentage damage", "setting": "[5]", "value": 100, "unit": "percentage damage"}, {"measurement": "pest or weed control at 2000 g/ha", "setting": "[6]", "value": 57, "unit": "%"}, {"measurement": "percentage damage", "setting": "[7]; 2.0 kg/ha", "value": 59, "unit": "percentage damage"}, {"measurement": "percentage damage", "setting": "[7]; 4.0 kg/ha", "value": 65, "unit": "percentage damage"}, {"measurement": "pest or weed control at 2000 g/ha", "setting": "[8]", "value": 74, "unit": "%"}, {"measurement": "percentage damage", "setting": "[9]; 2.0 kg/ha", "value": 74, "unit": "percentage damage"}, {"measurement": "percentage damage", "setting": "[9]; 4.0 kg/ha", "value": 78, "unit": "percentage damage"}, {"measurement": "percentage damage", "setting": "[10]", "value": 100, "unit": "percentage damage"}]}, {"smiles": "Brc1ccc(N2N=NC3C4CC(C5NNC45)C32)cc1", "note": "(centres unmarked)", "values": [{"measurement": "inhibition at 3000 g/ha", "setting": "[1]; leaf treatment", "value": 60, "unit": "%"}, {"measurement": "inhibition at 3000 g/ha", "setting": "[1]; soil treatment", "value": 60, "unit": "%"}, {"measurement": "inhibition at 3000 g/ha", "setting": "[2]; leaf treatment", "value": 50, "unit": "%"}, {"measurement": "inhibition at 3000 g/ha", "setting": "[2]; soil treatment", "value": 60, "unit": "%"}, {"measurement": "inhibition at 3000 g/ha", "setting": "[3]; leaf treatment", "value": 50, "unit": "%"}, {"measurement": "inhibition at 3000 g/ha", "setting": "[3]; soil treatment", "value": 50, "unit": "%"}]}, {"smiles": "Clc1ccc(N2N=NC3C4CC(C5N=NC45)C32)cc1Cl", "note": "(centres unmarked)", "values": [{"measurement": "growth inhibition compared with untreated control", "setting": "[1]; leaf treatment", "value": 40, "unit": "%"}, {"measurement": "growth inhibition compared with untreated control", "setting": "[1]; soil treatment", "value": 30, "unit": "%"}, {"measurement": "growth inhibition compared with untreated control", "setting": "[2]; leaf treatment", "value": 30, "unit": "%"}, {"measurement": "growth inhibition compared with untreated control", "setting": "[2]; soil treatment", "value": 40, "unit": "%"}, {"measurement": "growth inhibition compared with untreated control", "setting": "[3]; leaf treatment", "value": 25, "unit": "%"}, {"measurement": "growth inhibition compared with untreated control", "setting": "[3]; soil treatment", "value": 30, "unit": "%"}]}, {"smiles": "c1ccc(N2C3C4CC(C5N=NC45)C32)cc1", "note": "(centres unmarked) [drawing 411]", "values": [{"measurement": "pest or weed control at 2000 g/ha", "setting": "[11]", "value": 70, "unit": "%"}, {"measurement": "pest or weed control at 4000 g/ha", "setting": "[11]", "value": 83, "unit": "%"}, {"measurement": "percentage damage", "setting": "[12]; 2.0 kg/ha", "value": 65, "unit": "percentage damage"}, {"measurement": "percentage damage", "setting": "[12]; 4.0 kg/ha", "value": 90, "unit": "percentage damage"}, {"measurement": "percentage damage", "setting": "[13]; 2.0 kg/ha", "value": 45, "unit": "percentage damage"}, {"measurement": "percentage damage", "setting": "[13]; 4.0 kg/ha", "value": 60, "unit": "percentage damage"}, {"measurement": "percentage damage", "setting": "[14]; 2.0 kg/ha", "value": 70, "unit": "percentage damage"}, {"measurement": "percentage damage", "setting": "[14]; 4.0 kg/ha", "value": 100, "unit": "percentage damage"}, {"measurement": "percentage damage", "setting": "[15]; 2.0 kg/ha", "value": 90, "unit": "percentage damage"}, {"measurement": "percentage damage", "setting": "[15]; 4.0 kg/ha", "value": 100, "unit": "percentage damage"}, {"measurement": "percentage damage", "setting": "[16]", "value": 29, "unit": "percentage damage"}]}, {"smiles": "Cc1ccc(N2N=NC3C4CC(C5N=NC45)C32)cc1", "note": "(centres unmarked) [drawing 418]", "values": [{"measurement": "pest or weed control at 2000 g/ha", "setting": "[6]; preemergence, 2.0 kg/ha", "value": 65, "unit": "%"}, {"measurement": "percentage damage", "setting": "[7]; 2.0 kg/ha", "value": 55, "unit": "percentage damage"}, {"measurement": "percentage damage", "setting": "[7]; 4.0 kg/ha", "value": 100, "unit": "percentage damage"}, {"measurement": "pest or weed control at 2000 g/ha", "setting": "[8]; preemergence, 2.0 kg/ha", "value": 98, "unit": "%"}, {"measurement": "percentage damage", "setting": "[9]; 2.0 kg/ha", "value": 55, "unit": "percentage damage"}, {"measurement": "percentage damage", "setting": "[9]; 4.0 kg/ha", "value": 55, "unit": "percentage damage"}, {"measurement": "percentage damage", "setting": "[10]", "value": 13, "unit": "percentage damage"}]}, {"smiles": "O=S(=O)(c1ccccc1)N1C2C3CC(C4N=NC34)C21", "note": "(centres unmarked) [drawing 419]", "values": [{"measurement": "pest or weed control at 2000 g/ha", "setting": "[6]; preemergence, 2.0 kg/ha", "value": 70, "unit": "%"}, {"measurement": "percentage damage", "setting": "[7]; 2.0 kg/ha", "value": 40, "unit": "percentage damage"}, {"measurement": "percentage damage", "setting": "[7]; 4.0 kg/ha", "value": 100, "unit": "percentage damage"}, {"measurement": "pest or weed control at 2000 g/ha", "setting": "[8]; preemergence, 2.0 kg/ha", "value": 90, "unit": "%"}, {"measurement": "percentage damage", "setting": "[9]; 2.0 kg/ha", "value": 53, "unit": "percentage damage"}, {"measurement": "percentage damage", "setting": "[9]; 4.0 kg/ha", "value": 50, "unit": "percentage damage"}]}, {"smiles": "c1ccc(-n2nccc2N2N=NC3C4CC(C5N=NC45)C32)cc1", "note": "(centres unmarked)", "values": [{"measurement": "growth inhibition compared with untreated control", "setting": "[1]; leaf treatment", "value": 20, "unit": "%"}, {"measurement": "growth inhibition compared with untreated control", "setting": "[1]; soil treatment", "value": 60, "unit": "%"}, {"measurement": "growth inhibition compared with untreated control", "setting": "[2]; leaf treatment", "value": 20, "unit": "%"}, {"measurement": "growth inhibition compared with untreated control", "setting": "[2]; soil treatment", "value": 35, "unit": "%"}, {"measurement": "growth inhibition compared with untreated control", "setting": "[3]; leaf treatment", "value": 0, "unit": "%"}]}]}
